Assay results as given in patent US20230002361A1, “2H-INDAZOLE DERIVATIVES AND THEIR USE IN THE TREATMENT OF DISEASE” (BIOGEN MA INC., priority 2019, published 2023).
Like-named read-outs stand apart in the source and are kept apart here.

Experiments:
[1] = molecular target: T1, IRAK4 (Homo sapiens, UniProt Q9NWZ3); test: IRAK4 MSD Biochemical Assay (1 mM ATP, 2 h); details: room temperature
T1 construct: with 0.1 nM IRAK4, 1.6 μM of biotinylated peptide substrate and 10 μM ATP
T1 sequence (Q9NWZ3 1-460): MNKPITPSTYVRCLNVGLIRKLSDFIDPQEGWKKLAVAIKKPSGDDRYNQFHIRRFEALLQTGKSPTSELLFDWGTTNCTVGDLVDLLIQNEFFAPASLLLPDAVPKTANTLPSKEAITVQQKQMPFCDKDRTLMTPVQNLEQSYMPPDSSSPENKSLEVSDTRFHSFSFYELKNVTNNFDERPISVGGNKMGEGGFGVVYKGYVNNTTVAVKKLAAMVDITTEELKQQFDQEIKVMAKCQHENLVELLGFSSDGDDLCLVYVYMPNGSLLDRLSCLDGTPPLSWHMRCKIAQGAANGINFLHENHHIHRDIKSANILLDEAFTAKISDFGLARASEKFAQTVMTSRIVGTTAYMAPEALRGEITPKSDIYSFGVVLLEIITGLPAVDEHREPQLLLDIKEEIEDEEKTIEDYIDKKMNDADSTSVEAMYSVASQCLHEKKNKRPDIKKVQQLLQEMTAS
Experimental: The 2-hour 10 μM ATP Biochemical Assay employs a MesoScale Detection (MSD) format.
The activity is quenched with 11 μl of 70 mM EDTA, pH 8.
To detect the phosphorylated biotinylated peptide substrate, 30 μl of the quenched reaction mixture is added to equivalent wells of a 384 well streptavidin coated MesoScale plate (Meso Scale Discovery #L21SA-1). After a 1 hour incubation of the plate for 1 hour at room temperature with gentle mixing, the plate wells are washed 3 times with 50 mM Tris, pH 7.5, 150 mM NaCl, 0.02% Tween-20.
A 25 μl volume of 1:500 anti-P-Threonine Rabbit polyclonal Antibody plus 1:500 Goat-anti-Rabbit Sulfo Tag Antibody (Meso Scale Discovery R32AB-1) in 50 mM Tris, pH 7.5, 150 mM NaCl, 0.02% Tween-20 plus 2% BSA is then added to each well. After a 1-hour incubation of the plate for 1 hour at room temperature with gentle mixing, the plate wells are washed, 3 times with 50 mM Tris, pH 7.5, 150 mM NaCl, 0.02% Tween-20. A 40 μl volume of 2×MSD Read Buffer (Meso Scale Discovery R92TC-1) is added to each well, and the plate is read immediately in an MSD Plate Reader (Meso Scale Discovery).
The 2-hour 1 mM ATP IRAK4 Biochemical assay was performed as described above, but with […] IRAK4 and 1 mM ATP.

[2] = molecular target: T2, MDR1 (P-gp) (Homo sapiens, UniProt P08183); test: MDR1-MDCK assay (efflux ratio); type: in vitro ADME; details: human, MDCK-MDR1, 1 μM compound, 120 minutes incubation; read-out: MDR1-MDCK Efflux Ratio; (B-A/A-B)
T2 construct: host or cells: MDCK cells
T2 sequence (P08183 whole entry): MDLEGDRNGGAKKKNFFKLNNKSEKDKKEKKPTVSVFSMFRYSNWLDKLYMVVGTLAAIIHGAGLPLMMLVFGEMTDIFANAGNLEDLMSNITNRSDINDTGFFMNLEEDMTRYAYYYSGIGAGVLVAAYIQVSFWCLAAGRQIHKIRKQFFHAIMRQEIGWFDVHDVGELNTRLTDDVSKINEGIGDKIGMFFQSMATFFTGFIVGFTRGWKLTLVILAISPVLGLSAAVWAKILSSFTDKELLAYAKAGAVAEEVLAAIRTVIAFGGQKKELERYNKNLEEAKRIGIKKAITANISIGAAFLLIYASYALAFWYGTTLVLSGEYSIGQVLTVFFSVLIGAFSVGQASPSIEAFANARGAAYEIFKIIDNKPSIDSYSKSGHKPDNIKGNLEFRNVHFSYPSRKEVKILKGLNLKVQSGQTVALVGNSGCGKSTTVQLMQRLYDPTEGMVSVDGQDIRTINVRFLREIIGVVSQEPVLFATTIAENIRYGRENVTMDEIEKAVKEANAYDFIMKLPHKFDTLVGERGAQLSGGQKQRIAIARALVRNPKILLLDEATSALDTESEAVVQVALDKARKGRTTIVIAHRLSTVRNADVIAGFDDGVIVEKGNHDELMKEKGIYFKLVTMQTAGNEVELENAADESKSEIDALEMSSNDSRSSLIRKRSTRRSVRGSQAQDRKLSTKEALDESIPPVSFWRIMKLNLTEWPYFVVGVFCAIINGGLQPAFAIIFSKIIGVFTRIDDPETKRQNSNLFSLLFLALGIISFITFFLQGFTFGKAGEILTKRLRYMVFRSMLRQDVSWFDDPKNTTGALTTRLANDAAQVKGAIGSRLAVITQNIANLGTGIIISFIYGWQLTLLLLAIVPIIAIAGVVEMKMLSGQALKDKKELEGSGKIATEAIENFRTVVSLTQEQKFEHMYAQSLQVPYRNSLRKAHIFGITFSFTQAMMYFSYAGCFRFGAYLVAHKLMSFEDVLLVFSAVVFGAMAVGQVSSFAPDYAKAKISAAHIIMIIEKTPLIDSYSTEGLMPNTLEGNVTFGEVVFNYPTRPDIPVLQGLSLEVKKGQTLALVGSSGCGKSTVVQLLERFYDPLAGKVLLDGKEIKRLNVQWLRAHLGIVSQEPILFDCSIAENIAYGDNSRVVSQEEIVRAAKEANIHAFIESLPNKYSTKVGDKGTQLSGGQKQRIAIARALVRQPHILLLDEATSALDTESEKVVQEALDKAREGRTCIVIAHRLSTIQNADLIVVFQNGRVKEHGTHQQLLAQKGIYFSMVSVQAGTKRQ
Experimental: • The assay makes use of human MDR1 transfected MDCK cells (NIH cell line in-licensed from Absorption Systems) • The compounds are tested at 1 μM concentration prepared in transport buffer (Hank's balanced salt solution with HEPES) • MDR1-MDCK cell are cultured for 7 days in 96 well transwell insert plates (Corning). Insert plates are washed before the assay and TEER (Trans epithelial electric resistance) is measured. • These plates are loaded with test compound solution 85 μL for A-B transport and 260 μL for B-A transport in the respective donor compartment.
Mass balance=100×((Vr×Cr^final)+(Vd×Cd^final))/(Vd×CE) • Where: • dCr/dt is the cumulative concentration in the receiver compartment versus time in μM s^−1 • Vr is the volume of the receiver compartment in cm^3 • Vd is the volume of the donor compartment in cm^3 • A is the area of the insert (0.143 cm^2 for 96-well insert) • CE is the estimated experimental concentration (Time=0) of the dosing solution • Cr^final is the concentration of the receiver at the end of the incubation period • Cd^final is the concentration of the donor at the end of the incubation period.

[3] = read-out: IRAK4 MSD Biochemical Assay (1 mM ATP, 2 h) IC50
[4] = IRAK4 MSD Biochemical Assay (1 mM ATP, 2 h) IC50 (nM)

SMILES	IC50 [1, 3]	efflux ratio at 120 min, 1 μM [2]	IC50 [1, 4]
COc1cc2nn(C[C@H]3CCOC3)cc2cc1C(=O)Nc1cccc(C(F)F)n1 (single isomer, unassigned) [Example 18]	7.1 nM	0.9	–
COc1cc2nn(C[C@@H]3CCOC3)cc2cc1C(=O)Nc1cccc(C(F)F)n1 (single isomer, unassigned) [Example 19]	5.4 nM	1	–
CC(C)Oc1cc2nn(C[C@H]3CCOC3)cc2cc1C(=O)Nc1cccc(C(F)F)n1 (single isomer, unassigned) [Example 20]	0.5 nM	0.7	–
CC(C)Oc1cc2nn(C[C@@H]3CCOC3)cc2cc1C(=O)Nc1cccc(C(F)F)n1 (single isomer, unassigned) [Example 21]	0.5 nM	0.7	–
COc1cccc(NC(=O)c2cc3cn(C[C@@H]4CCOC4)nc3cc2OC)n1 (single isomer, unassigned) [Example 22]	9.2 nM	0.6	–
COc1cccc(NC(=O)c2cc3cn(C[C@H]4CCOC4)nc3cc2OC)n1 (single isomer, unassigned) [Example 23]	51.3 nM	0.8	–
CC(C)Oc1cc2nn([C@H]3CCCOC3)cc2cc1C(=O)Nc1cccc(C(F)F)n1 (single isomer, unassigned) [Example 42]	0.4 nM	0.9	–
CC(C)Oc1cc2nn([C@@H]3CCCOC3)cc2cc1C(=O)Nc1cccc(C(F)F)n1 (single isomer, unassigned) [Example 43]	0.2 nM	0.6	–
CC(C)Oc1cc2nn([C@H]3CCOC3)cc2cc1C(=O)Nc1cccc(C(F)F)n1 (single isomer, unassigned) [Example 44]	2.2 nM	0.8	–
CC(C)Oc1cc2nn([C@@H]3CCOC3)cc2cc1C(=O)Nc1cccc(C(F)F)n1 (single isomer, unassigned) [Example 45]	2.1 nM	1	–
CC(C)Oc1cc2nn([C@@H]3CCOC(C)(C)C3)cc2cc1C(=O)Nc1cccc(C(F)F)n1 (single isomer, unassigned) [Example 46]	0.3 nM	1.2	–
CC(C)Oc1cc2nn([C@H]3CCOC(C)(C)C3)cc2cc1C(=O)Nc1cccc(C(F)F)n1 (single isomer, unassigned) [Example 47]	0.2 nM	1.5	–
CC(C)Oc1nc2nn(C[C@@H]3CCOC3)cc2cc1C(=O)Nc1cccc2ccnn12 (single isomer, unassigned) [Example 52]	1 nM	1	–
CC(C)Oc1nc2nn(C[C@H]3CCOC3)cc2cc1C(=O)Nc1cccc2ccnn12 (single isomer, unassigned) [Example 53]	1.5 nM	1	–
Cc1cnc2c(NC(=O)c3cc4cn(C[C@H]5CCOC5)nc4nc3OC(C)C)cnn2c1 (single isomer, unassigned) [Example 104]	0.9 nM	4.8	–
Cc1cnc2c(NC(=O)c3cc4cn(C[C@@H]5CCOC5)nc4nc3OC(C)C)cnn2c1 (single isomer, unassigned) [Example 105]	1.5 nM	4.8	–
CC(C)Oc1nc2nn(C[C@H]3CCOC3)cc2cc1C(=O)Nc1cccc(C(F)F)n1 (single isomer, unassigned) [Example 106]	0.4 nM	0.8	–
CC(C)Oc1nc2nn(C[C@@H]3CCOC3)cc2cc1C(=O)Nc1cccc(C(F)F)n1 (single isomer, unassigned) [Example 107]	0.3 nM	1	–

SMILES	IC50 [1, 3]	efflux ratio at 120 min, 1 μM [2]	IC50 [1, 4]
CC(C)Oc1nc2nn(C[C@H]3CCOC3)cc2cc1C(=O)Nc1ccn(C(F)F)n1 (single isomer, unassigned) [Example 110]	2.8 nM	2.2	–
CC(C)Oc1nc2nn(C[C@@H]3CCOC3)cc2cc1C(=O)Nc1ccn(C(F)F)n1 (single isomer, unassigned) [Example 111]	2.7 nM	2.1	–
Cn1cccc(NC(=O)c2cc3cn(C[C@H]4CCOC4)nc3nc2OC2CCC2)c1=O (single isomer, unassigned) [Example 112]	3.4 nM	8.3	–
Cn1cccc(NC(=O)c2cc3cn(C[C@@H]4CCOC4)nc3nc2OC2CCC2)c1=O (single isomer, unassigned) [Example 113]	2.1 nM	5.3	–
Cn1cccc(NC(=O)c2cc3cn(C[C@H]4CCOC4)nc3nc2OC2CCCC2)c1=O (single isomer, unassigned) [Example 114]	1.8 nM	1.5	–
Cn1cccc(NC(=O)c2cc3cn(C[C@@H]4CCOC4)nc3nc2OC2CCCC2)c1=O (single isomer, unassigned) [Example 115]	1 nM	2.3	–
O=C(Nc1ccn(C(F)F)n1)c1cc2cn(C[C@H]3CCOC3)nc2nc1OC1CCCC1 (single isomer, unassigned) [Example 116]	3.8 nM	2.5	–
O=C(Nc1ccn(C(F)F)n1)c1cc2cn(C[C@@H]3CCOC3)nc2nc1OC1CCCC1 (single isomer, unassigned) [Example 117]	2 nM	2.6	–
CC(C)Oc1nc2nn(C[C@H]3CCOC3)cc2cc1C(=O)Nc1cnn2cccnc12 (single isomer, unassigned) [Example 118]	–	3.1	0.8 nM
CC(C)Oc1nc2nn(C[C@@H]3CCOC3)cc2cc1C(=O)Nc1cnn2cccnc12 (single isomer, unassigned) [Example 119]	–	3	1 nM
CC(C)Oc1nc2nn([C@@H]3CCCOC3)cc2cc1C(=O)Nc1cnn2cccnc12 (single isomer, unassigned) [Example 120]	0.5 nM	0.9	–
CC(C)Oc1nc2nn([C@H]3CCCOC3)cc2cc1C(=O)Nc1cnn2cccnc12 (single isomer, unassigned) [Example 121]	0.7 nM	1.1	–
Cc1cnc2c(NC(=O)c3cc4cn(C[C@H]5CCOC5)nc4nc3OC3CCC3)cnn2c1 (single isomer, unassigned) [Example 122]	0.4 nM	4.2	–
Cc1cnc2c(NC(=O)c3cc4cn(C[C@@H]5CCOC5)nc4nc3OC3CCC3)cnn2c1 (single isomer, unassigned) [Example 123]	0.5 nM	5.9	–
Cn1ccc(NC(=O)c2cc3cn(C4CCCOC4)nc3nc2OC2CCC2)n1 (single isomer, unassigned) [Example 130]	1.7 nM	–	–
CC(C)Oc1cc2nn(C34COC(C)(C3)C4)cc2cc1C(=O)Nc1cccn(C)c1=O.O=C(O)C(F)(F)F [Example 55, 6-Isopropoxy-N-(1-methyl-2-oxo-1,2-dihydropyridin-3-yl)-2-(1-methyl-2-oxabicyclo[2.1.1]hexan-4-yl)-2H-indazole-5-carboxamide Trifluoroacetate]	–	1.2	–
CC(C)Oc1cc2nn(C34CCC(C)(C3)OC4)cc2cc1C(=O)Nc1cnn2cc(F)cnc12 (stereo not shown) [Example 100, N-(6-fluoropyrazolo[1,5-a]pyrimidin-3-yl)-6-isopropoxy-2-(1-methyl-2-oxabicyclo[2.2.1]heptan-4-yl)-2H-indazole-5-carboxamide]	1.2 nM	–	–
